Assay results reported in ChEMBL document CHEMBL1201862, “PubChem BioAssay data set” (2004).
Activity calls are given as the source filed them.

Columns and labels:
[1] = Luminescence Cell-Based Dose Confirmation HTS to Identify Activators of 5'UTR Stem-Loop Driven Alpha-Synuclein mRNA Translation in H4 Neuroglioblastoma Cells. [Related pubchem assays: 1829 (Project Summary), 1814 (Primary HTS)]; type: functional
[2] = Luminescence Cell-Based Dose Response HTS to Identify Activators of Luciferase Translation or Activity in H4 […] Cells. [Related pubchem assays: 1829 (Project Summary), 1814 (Primary HTS)]; type: functional
H4 = assay: Luminescence Cell-Based Dose Response HTS to Identify Activators of 5'UTR Stem-Loop Driven Prion Protein mRNA Translation in H4 Neuroglioblastoma Cells. [Related pubchem assays: 1829 (Project Summary), 1814 (Primary HTS)]; type: functional; conditions: Homo sapiens
[3] = molecular target: Mitogen-activated protein kinase 10 (Homo sapiens, UniProt P53779); assay: Dose response biochemical screening assay for inhibitors of c-Jun N-Terminal Kinase 3 (JNK3). [Related pubchem assays: 746 ]
Mitogen-activated protein kinase 10, sequence (P53779 whole entry): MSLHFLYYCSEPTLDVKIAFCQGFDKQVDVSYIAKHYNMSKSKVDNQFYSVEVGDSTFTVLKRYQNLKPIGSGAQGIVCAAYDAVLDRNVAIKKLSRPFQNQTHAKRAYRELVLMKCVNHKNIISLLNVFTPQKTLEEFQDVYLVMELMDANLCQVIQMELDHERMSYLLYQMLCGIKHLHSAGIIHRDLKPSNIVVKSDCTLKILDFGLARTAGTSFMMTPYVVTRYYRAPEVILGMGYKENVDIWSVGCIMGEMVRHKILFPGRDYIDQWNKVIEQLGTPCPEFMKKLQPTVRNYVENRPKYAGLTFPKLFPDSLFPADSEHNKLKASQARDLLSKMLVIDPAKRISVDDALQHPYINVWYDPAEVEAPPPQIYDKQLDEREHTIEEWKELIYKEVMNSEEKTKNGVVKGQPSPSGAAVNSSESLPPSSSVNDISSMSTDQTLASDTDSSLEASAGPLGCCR

Bcl-2-like protein 10 = molecular target: T1, Bcl-2-like protein 10 (Homo sapiens, UniProt Q9HD36); assay: Bcl-B/TR3 peptide binding disruption – biochemical, fluorescence polarization, FITC-TR3 peptide, selectivity assay for Bfl-1 inhibitor project, primary screen (AID 748);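 also: fluorescence polarization from a fluorescein-labelled TR3 peptide binding purified Bcl-B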
T1 sequence (Q9HD36 whole entry): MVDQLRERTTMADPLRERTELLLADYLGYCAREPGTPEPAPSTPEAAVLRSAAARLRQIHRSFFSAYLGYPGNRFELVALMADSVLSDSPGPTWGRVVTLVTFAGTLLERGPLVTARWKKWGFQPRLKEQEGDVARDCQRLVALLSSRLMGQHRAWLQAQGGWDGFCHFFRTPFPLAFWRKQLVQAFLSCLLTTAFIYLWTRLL

14-3-3 protein gamma = 14-3-3 protein gamma (Homo sapiens, UniProt P61981); assay: modulators of 14-3-3 gamma client binding – dose response (AID 711); type: functional
14-3-3 protein gamma, sequence (P61981 whole entry): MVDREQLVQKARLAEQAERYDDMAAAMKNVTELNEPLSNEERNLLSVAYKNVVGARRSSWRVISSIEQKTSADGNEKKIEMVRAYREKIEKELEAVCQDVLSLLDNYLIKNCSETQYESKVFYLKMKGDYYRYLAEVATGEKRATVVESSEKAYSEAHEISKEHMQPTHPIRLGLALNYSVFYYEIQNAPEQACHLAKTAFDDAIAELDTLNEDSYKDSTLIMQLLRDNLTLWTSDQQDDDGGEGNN

[4] = molecular target: DNA dC->dU-editing enzyme APOBEC-3A (Homo sapiens, UniProt P31941); assay: Dose Response confirmation of small molecule APOBEC3A DNA Deaminase Inhibitors via a fluorescence-based single-stranded DNA deaminase assay. [Related pubchem assays (depositor defined):AID493011, AID493024]; type: functional
DNA dC->dU-editing enzyme APOBEC-3A, sequence (P31941 whole entry): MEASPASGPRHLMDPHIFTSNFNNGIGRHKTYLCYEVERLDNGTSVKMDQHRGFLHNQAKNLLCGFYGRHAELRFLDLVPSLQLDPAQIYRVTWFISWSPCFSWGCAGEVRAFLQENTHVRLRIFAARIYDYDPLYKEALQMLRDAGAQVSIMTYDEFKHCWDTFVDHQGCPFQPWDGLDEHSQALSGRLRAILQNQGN

[5] = molecular target: DNA dC->dU-editing enzyme APOBEC-3G (Homo sapiens, UniProt Q9HC16); type: functional;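 also: Dose-response counterscreen measuring inhibition of APOBEC3G DNA deaminase activity, run while confirming APOBEC3A inhibitors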
DNA dC->dU-editing enzyme APOBEC-3G, sequence (Q9HC16 whole entry): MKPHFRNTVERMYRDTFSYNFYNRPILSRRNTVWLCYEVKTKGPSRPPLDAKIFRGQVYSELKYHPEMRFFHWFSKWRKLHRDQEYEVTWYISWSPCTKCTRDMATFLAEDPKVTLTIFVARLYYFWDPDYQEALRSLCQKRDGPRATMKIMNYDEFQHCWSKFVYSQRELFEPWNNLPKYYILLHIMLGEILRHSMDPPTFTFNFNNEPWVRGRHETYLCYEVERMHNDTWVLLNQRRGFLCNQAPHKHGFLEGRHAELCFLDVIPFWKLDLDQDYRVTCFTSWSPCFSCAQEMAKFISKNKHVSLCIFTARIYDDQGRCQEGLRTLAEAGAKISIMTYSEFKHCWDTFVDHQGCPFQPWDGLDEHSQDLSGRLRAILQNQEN

Estrogen receptor = molecular target: T2, Estrogen receptor (Homo sapiens, UniProt P03372);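 also: potency for inhibiting coactivator peptide recruitment to the receptor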
T2 sequence (P03372 whole entry): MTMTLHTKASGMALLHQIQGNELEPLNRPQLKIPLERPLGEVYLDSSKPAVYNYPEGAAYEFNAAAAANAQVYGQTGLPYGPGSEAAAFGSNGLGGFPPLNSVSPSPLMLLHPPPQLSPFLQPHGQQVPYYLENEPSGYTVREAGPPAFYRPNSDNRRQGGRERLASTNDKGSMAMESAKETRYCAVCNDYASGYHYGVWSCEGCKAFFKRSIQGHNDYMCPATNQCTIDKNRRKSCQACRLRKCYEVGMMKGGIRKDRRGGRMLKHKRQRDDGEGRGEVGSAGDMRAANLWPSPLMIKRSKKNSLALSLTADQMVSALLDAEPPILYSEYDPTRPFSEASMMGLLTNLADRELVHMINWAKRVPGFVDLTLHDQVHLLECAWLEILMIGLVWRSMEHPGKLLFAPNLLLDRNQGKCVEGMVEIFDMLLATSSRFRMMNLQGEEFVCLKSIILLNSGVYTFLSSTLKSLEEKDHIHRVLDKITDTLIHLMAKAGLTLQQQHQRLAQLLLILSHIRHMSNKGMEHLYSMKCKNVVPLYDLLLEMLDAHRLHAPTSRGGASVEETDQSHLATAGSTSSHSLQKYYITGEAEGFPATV

Estrogen receptor beta [6] = molecular target: T3, Estrogen receptor beta (Homo sapiens, UniProt Q92731);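 also: recombinant ER-beta bound to coactivator SRC1 peptide in presence of estradiol agonist; inhibitors block coactivator peptide binding and lower the FRET signal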
T3 sequence (Q92731 whole entry): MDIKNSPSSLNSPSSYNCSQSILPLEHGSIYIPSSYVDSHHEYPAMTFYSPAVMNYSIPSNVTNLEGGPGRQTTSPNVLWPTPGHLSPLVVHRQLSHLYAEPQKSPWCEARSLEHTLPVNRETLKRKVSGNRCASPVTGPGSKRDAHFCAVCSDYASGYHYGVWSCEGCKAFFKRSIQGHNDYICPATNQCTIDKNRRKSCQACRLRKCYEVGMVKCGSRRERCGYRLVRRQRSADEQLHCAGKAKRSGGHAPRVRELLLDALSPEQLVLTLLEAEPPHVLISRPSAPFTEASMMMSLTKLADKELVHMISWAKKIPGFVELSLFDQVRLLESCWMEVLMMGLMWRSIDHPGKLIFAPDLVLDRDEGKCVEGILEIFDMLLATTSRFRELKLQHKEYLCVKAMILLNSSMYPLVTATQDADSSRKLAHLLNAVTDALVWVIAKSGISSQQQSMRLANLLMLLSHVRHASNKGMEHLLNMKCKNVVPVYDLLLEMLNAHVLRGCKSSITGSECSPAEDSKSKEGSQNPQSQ

Estrogen receptor beta [7] = molecular target: T3, Estrogen receptor beta; assay: blockers of SRC-3 recruitment to ERβ – biochemical, ELISA, streptavidin-HRP readout, orthogonal assay, confirmation (AID 1060)
[8] = molecular target: T4, Carboxy-terminal domain RNA polymerase II polypeptide A small phosphatase 1 (Homo sapiens, UniProt Q9GZU7); assay: CTDSP1 inhibitors, concentration-response, biochemical, absorbance readout, ultra-high-throughput screen actives (AID 540297); type: functional
T4 sequence (Q9GZU7 whole entry): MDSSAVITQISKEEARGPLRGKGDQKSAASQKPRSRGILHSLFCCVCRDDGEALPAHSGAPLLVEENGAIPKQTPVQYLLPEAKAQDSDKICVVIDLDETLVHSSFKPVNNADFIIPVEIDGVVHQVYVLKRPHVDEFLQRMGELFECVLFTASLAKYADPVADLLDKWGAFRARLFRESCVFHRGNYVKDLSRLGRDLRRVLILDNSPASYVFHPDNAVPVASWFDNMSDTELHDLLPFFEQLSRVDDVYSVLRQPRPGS

[9] = molecular target: E3 ubiquitin-protein ligase UHRF1 (Homo sapiens, UniProt Q96T88); assay: Counterscreen for inhibitors of 5-meCpG-binding domain protein 2 (MBD2): TRFRET-based biochemical high throughput dose response assay to identify inhibitors of binding of ubiquitin-like with PHD and ring finger domains 1 (UHRF1) to methylated oligonucleotide.
E3 ubiquitin-protein ligase UHRF1, sequence (Q96T88 whole entry, the tested form may be a part): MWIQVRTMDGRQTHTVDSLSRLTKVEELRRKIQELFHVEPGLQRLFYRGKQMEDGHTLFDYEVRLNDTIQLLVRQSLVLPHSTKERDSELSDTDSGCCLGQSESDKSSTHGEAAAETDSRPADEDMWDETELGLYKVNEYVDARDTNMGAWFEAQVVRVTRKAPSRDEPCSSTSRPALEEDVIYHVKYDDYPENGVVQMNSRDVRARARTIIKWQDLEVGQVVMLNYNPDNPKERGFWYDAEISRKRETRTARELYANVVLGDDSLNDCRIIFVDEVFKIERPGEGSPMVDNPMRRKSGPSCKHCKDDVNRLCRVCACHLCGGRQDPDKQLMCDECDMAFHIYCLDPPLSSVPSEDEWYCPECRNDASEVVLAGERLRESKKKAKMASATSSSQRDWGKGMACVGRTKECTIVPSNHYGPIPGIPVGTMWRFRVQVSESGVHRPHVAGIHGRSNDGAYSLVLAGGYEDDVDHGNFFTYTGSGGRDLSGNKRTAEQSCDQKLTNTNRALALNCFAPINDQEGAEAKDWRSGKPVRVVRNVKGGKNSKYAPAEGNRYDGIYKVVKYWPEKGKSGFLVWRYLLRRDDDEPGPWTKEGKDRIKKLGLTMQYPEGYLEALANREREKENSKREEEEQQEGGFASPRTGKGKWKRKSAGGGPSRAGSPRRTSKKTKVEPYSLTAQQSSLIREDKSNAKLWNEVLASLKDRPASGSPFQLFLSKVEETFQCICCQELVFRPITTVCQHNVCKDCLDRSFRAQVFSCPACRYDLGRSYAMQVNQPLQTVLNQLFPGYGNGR

[10] = molecular target: Muscarinic acetylcholine receptor M1 (Rattus norvegicus, UniProt P08482); assay: concentration-dependent potentiation of ACh at M1 – cell-based, calcium mobilization, CHO-K1, ACh EC20, dose response (AID 2425); type: functional
Muscarinic acetylcholine receptor M1, sequence (P08482 whole entry): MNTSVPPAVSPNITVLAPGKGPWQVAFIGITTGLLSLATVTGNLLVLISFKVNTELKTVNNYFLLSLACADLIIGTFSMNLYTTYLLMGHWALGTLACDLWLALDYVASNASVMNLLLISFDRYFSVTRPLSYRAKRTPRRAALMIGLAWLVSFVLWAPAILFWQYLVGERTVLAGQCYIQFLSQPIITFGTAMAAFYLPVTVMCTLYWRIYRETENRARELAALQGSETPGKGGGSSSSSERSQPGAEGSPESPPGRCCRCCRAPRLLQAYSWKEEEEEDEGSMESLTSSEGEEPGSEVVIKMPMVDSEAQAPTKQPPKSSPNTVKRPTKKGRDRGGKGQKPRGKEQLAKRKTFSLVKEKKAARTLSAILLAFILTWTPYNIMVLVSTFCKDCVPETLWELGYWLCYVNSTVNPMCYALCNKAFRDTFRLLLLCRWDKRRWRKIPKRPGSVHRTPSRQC

[11] = viability of PTEN-deleted HCT116 cells – cell-based, HCT116 PTEN knockout, dose response (AID 1047); type: functional;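 also: HCT116 colon tumor cells with PTEN knocked out; cells exposed to compound for 60 hours before readout; potency for loss of cell viability measured by luminescence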
[12] = viability of HCT116 lacking mutant beta-catenin – cell-based, human colon tumor, dose response (AID 1045); type: functional;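 also: HCT116 colon tumor cells with beta catenin knocked out; cells exposed to compound for 60 hours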
[13] = Inhibition of T. cruzi Tulahuen strain amastigotes in L-6 muscle cells Measured in Cell-Based and Microorganism Combination System Using Plate Reader - 2138-03_Inhibitor_Dose_CherryPick_Activity.; type: functional; conditions: Rattus norvegicus, L6
[14] = L6 myocyte viability loss – cell-based, plate reader, cherry-pick, cytotoxicity control, dose response (AID 651896); type: functional
[15] = Inhibition of Plasmodium falciparum NF54 Measured in Cell-Based System Using Plate Reader - 2138-11_Inhibitor_Dose_CherryPick_Activity.; type: functional
[16] = antileishmanial activity on axenic amastigotes – plate reader, cherry pick, dose response (AID 651891); type: functional, cell-based; conditions: Leishmania donovani
[17] = intracellular Trypanosoma cruzi inhibitors in host cells – cell-based, plate reader, cherry-pick samples, set 3, dose response (AID 651818); type: functional;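 also: compounds incubated with infected cells for about four days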
[18] = African trypanosome bloodstream form growth inhibition – STIB900 strain, plate reader, cherry pick, dose response (AID 651893); type: functional, cell-based, Trypanosoma brucei rhodesiense; conditions: Trypanosoma brucei
[19] = T. cruzi growth inhibition in host cells, dose response, cell-based, plate reader, dry powder, set 2 (AID 652275); type: functional
[20] = Trypanosoma cruzi replication inhibitors in host cells – cell-based, plate reader, dry powder samples, dose response (AID 651845); type: functional
[21] = anti-trypanosomal activity in BESM host cells – imaging, CA-I/72 strain, bovine embryo skeletal muscle, dry powder, dose response (AID 651885); type: functional, cell-based
[22] = blockers of HIV-1 envelope-mediated cell-cell fusion – cherry-pick, dose response (AID 652057); type: functional, cell-based
[23] = blockers of HIV-1 ZM109 envelope-driven cell-cell fusion – HeLa effector, CEM target cells, luciferase, cherry-pick, dose response (AID 652058); type: functional, cell-based;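 also: luciferase signal from HIV-1 Env mediated cell-cell fusion of effector and target cells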
[24] = inhibition of Env-driven cell fusion – HIV entry, plate reader, dry powder, dose response (AID 687023); type: functional, cell-based
[25] = viability loss in CEM21 cells – cell-based, plate reader, dry powder, cytotoxicity control, dose response (AID 687026); type: functional
[26] = A Cell-Based Confirmatory Screen for Compounds that Inhibit VEEV, TC-83 (5).; type: functional
[27] = cytotoxicity in MITF-independent A375 cells – cell-based, CellTiter-Glo luminescence, dry powder, set 4, counter-screen for MITF inhibitor project, dose response (AID 624364); type: functional; conditions: A-375;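 also: A375 melanoma cells are MITF independent so this is a counter screen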
[28] = viability loss in MITF-independent A375 cells – cell-based, CellTiter-Glo luminescence, dry powder, set 2, counter-screen for MITF inhibitor project, dose response (AID 624489); type: functional; conditions: A-375;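 also: actives are compounds lowering A375 viability meaning general cytotoxicity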
[29] = molecular target: T5, Potassium channel subfamily K member 9 (Homo sapiens, UniProt Q9NPC2); assay: TASK3 channel blockers, electrophysiology – cell-based, automated electrophysiology, selectivity assay for TASK1 (KCNK3) inhibitor project, SAR follow-up (AID 652210); type: functional
T5 sequence (Q9NPC2 whole entry): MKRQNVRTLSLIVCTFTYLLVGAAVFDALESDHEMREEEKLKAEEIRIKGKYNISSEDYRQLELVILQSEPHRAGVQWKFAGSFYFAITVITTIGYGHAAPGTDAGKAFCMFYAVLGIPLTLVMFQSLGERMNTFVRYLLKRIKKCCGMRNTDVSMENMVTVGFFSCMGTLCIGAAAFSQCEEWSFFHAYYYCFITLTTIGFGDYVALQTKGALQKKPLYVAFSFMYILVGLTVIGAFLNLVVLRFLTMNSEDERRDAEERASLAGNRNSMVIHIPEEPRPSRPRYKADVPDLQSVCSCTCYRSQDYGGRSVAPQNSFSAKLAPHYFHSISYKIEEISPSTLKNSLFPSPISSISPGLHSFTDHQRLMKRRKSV

[30] = molecular target: T5, Potassium channel subfamily K member 9; assay: KCNK9 flux blockade, concentration-response – cell-based, FluxOR thallium flux, selectivity assay for TASK1 inhibitor project, SAR follow-up (AID 652211); type: functional;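 also: potency is for inhibitors of the channel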
[31] = molecular target: Potassium channel subfamily K member 3 (Rattus norvegicus, UniProt O54912); assay: SAR analysis for the identification of selective inhibitors of the two-pore domain potassium channel TASK1(KCNK3):Automated Electrophysiology.; type: functional
Potassium channel subfamily K member 3 (Rattus norvegicus, UniProt O54912), sequence (O54912 whole entry, the tested form may be a part): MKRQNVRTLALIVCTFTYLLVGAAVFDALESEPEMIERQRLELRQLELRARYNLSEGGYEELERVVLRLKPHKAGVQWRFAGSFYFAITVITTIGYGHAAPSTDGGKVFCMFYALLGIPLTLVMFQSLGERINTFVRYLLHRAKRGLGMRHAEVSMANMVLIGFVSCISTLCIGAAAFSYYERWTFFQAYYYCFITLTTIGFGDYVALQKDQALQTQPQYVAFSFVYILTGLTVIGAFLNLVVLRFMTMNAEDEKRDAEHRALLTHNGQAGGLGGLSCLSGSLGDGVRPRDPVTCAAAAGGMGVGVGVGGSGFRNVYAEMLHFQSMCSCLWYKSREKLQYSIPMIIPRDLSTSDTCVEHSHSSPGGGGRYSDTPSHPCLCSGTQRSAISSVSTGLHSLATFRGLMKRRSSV

[32] = molecular target: Potassium channel subfamily K member 3 (Homo sapiens, UniProt O14649); assay: inhibition of human KCNK3 channel flux – CHO cells, FluxOR thallium flux, SAR follow-up (AID 652212); type: functional
Potassium channel subfamily K member 3 (Homo sapiens, UniProt O14649), sequence (O14649 whole entry): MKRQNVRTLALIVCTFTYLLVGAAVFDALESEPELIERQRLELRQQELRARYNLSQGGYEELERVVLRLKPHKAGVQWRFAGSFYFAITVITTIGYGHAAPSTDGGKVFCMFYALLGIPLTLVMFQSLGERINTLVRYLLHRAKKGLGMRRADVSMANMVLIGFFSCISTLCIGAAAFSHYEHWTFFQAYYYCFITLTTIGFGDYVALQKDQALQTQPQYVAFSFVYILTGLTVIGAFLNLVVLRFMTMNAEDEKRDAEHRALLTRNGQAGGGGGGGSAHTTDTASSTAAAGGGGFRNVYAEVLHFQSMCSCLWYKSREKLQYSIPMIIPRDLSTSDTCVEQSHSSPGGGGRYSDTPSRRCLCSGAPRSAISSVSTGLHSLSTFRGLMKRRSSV

[33] = inhibitors of non-replicating M. tuberculosis, dose response, luciferase, dry powder (AID 651619); type: functional; conditions: Mycobacterium tuberculosis
[34] = HeLa cell viability loss – plate reader, dry powder, cytotoxicity control, dose response (AID 651946); type: functional, cell-based
[35] = inhibitors of non-replicating M. tuberculosis, dose response, luciferase, dry powder (AID 651620); type: functional; conditions: Mycobacterium tuberculosis
[36] = growth inhibition of replicating M. tuberculosis, dose response, counter-screen, dry powder, IC90 (AID 651617); type: functional; conditions: Mycobacterium tuberculosis
[37] = molecular target: NAD-dependent protein deacylase sirtuin-5, mitochondrial (Homo sapiens, UniProt Q9NXA8); assay: blockers of sirtuin-5 peptide desuccinylation – biochemical, fluorescence imaging, cherry-pick, set 6, dose response (AID 720597)
[38] = molecular target: RNA-editing ligase 1, mitochondrial (Trypanosoma brucei brucei, UniProt P86926); assay: inhibition of trypanosome RNA editing ligase – biochemical, fluorescence, Trypanosoma brucei, dose response (AID 1117295); type: functional
RNA-editing ligase 1, mitochondrial, sequence (P86926 whole entry): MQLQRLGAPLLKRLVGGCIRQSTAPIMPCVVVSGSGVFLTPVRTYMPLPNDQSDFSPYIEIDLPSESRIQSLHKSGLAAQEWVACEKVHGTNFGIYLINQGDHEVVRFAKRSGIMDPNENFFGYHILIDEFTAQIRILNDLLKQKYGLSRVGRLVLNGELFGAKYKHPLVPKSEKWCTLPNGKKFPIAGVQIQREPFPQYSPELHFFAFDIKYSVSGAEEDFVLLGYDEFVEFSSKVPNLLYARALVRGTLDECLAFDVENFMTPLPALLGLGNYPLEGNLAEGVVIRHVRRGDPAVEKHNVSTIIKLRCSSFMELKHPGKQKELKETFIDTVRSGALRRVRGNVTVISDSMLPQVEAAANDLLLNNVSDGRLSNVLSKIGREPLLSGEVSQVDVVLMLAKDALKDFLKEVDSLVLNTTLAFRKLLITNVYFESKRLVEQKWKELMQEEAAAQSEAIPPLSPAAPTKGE

[39] = molecular target: T6, Low molecular weight phosphotyrosine protein phosphatase (Homo sapiens, UniProt P24666); assay: inhibition of LMPTP-A enzymatic activity – biochemical, OMFP substrate, fluorescence intensity, set 2, dose response (AID 743307); type: functional
T6 sequence (P24666 whole entry, canonical isoform): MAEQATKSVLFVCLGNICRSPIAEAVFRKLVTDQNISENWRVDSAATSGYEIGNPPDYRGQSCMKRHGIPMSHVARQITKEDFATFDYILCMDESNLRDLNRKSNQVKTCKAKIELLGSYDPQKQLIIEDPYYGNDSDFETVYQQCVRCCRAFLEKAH

[40] = molecular target: T6, Low molecular weight phosphotyrosine protein phosphatase; assay: inhibition of human LMPTP enzyme activity – biochemical, absorbance, pNPP substrate, LMPTP-A isoform, set 2, orthogonal assay, dose response (AID 743308); type: functional

SMILES: CC1=CC(=C2C(=O)c3ccccc3C2=O)C=C(C)N1C
- EC50 [1]: 53.3 µM (active)
- EC50 [2]: 29.3 µM (active)
- EC50 (H4): 57.2 µM (active)
- IC50 [3]: 42.1 µM (not active)

SMILES: Cc1nc2ccc(C(=O)O)cc2c2c1CC(C)S2 (centres undefined)
- IC50 (Bcl-2-like protein 10): > 100 µM (inactive)
- IC50 (14-3-3 protein gamma): 25.7 µM (active)
- IC50 [4]: 16.2 µM (active)
- IC50 [5]: 26.3 µM (active)

SMILES: O=C(Cc1coc2cc3c(cc12)CCC3)OCc1cc(=O)n2c(n1)sc1ccccc12
- IC50 (Estrogen receptor): 4.83 µM (active)
- IC50 (Estrogen receptor beta [6]): 3.05 µM (active)
- IC50 (Estrogen receptor beta [7]): 17.6 µM (not active)
- IC50 [8]: 4.58 µM (active)
- IC50 [9]: > 43.8 µM (inactive)

SMILES: Cc1cc(NC(=O)CS(=O)(=O)c2cn(Cc3ccccc3Cl)c3ccccc23)no1
- EC50 [10]: 9.13 µM (active)
- EC50 [11]: 41.3 µM (active)
- EC50 [12]: 72.8 µM (active)

SMILES: C[C@@H]1CN([C@H](C)CO)C(=O)c2cccc(NC(=O)c3ccncc3)c2O[C@H]1CN(C)Cc1ccccc1
- IC50 [13]: 5.64 µM (inactive)
- IC50 [14]: > 100 µM (inactive)
- IC50 [15]: 5.64 µM (inactive)
- IC50 [16]: > 100 µM (inactive)
- AC50 [17]: 80 nM (active)
- IC50 [18]: 6.14 µM (inactive)
- AC50 [19]: 5.61 nM (active)
- AC50 [20]: 64 nM (active)
- IC50 [21]: 14.4 nM (active)

SMILES: C[C@@H]1CN([C@@H](C)CO)C(=O)c2cccc(NS(=O)(=O)c3ccc(F)cc3)c2O[C@@H]1CN(C)Cc1ccc(C(F)(F)F)cc1
- AC50 [22]: 295 nM (active)
- AC50 [23]: 451 nM (active)
- AC50 [24]: 4.05 µM (active)
- AC50 [25]: 43.9 µM (active)

SMILES: O=c1c2cc([N+](=O)[O-])ccc2nc(CN2CCCCC2)n1-c1ccccc1F
- IC50 [26]: 4.7 µM (active)

SMILES: CC(=O)NC1=C(c2ccc3c(c2)oc2ccccc23)C(=O)c2ccccc2C1=O
- AC50 [27]: 26.9 µM (active)
- AC50 [28]: 14.9 µM (active)

SMILES: CCOc1ccccc1NC(=O)c1cccc(NC(=O)CC2CCCC2)c1
- IC50 [29]: 3.9 µM (active)
- IC50 [30]: 4.17 µM (active)
- IC50 [31]: 320 nM (active)
- IC50 [32]: 161 nM (active)

SMILES: Cc1cccc(CSc2nnc(-c3ccc(Cl)cc3)o2)n1
- IC90 [33]: 2 µM (active)
- AC50 [34]: > 24 µM (inactive)
- IC90 [35]: 2 µM (active)
- IC90 [36]: 125 µM (active)

SMILES: CCCNC(=O)Nc1ccc2c(c1)C(=O)N(C)[C@H]1CC[C@H](CC(=O)NCC3CCCCC3)O[C@@H]1CO2
- AC50 [37]: > 30 µM (inactive)

SMILES: COC(=O)C1=C(C)N(Cc2ccc(C(F)(F)F)cc2)C(NCc2ccc(C(F)(F)F)cc2)=NC1c1ccccc1C(F)(F)F (centres undefined)
- IC50 [38]: > 96.6 µM (inactive)

SMILES: c1ccc(-c2cc(NCCCN3CCCCC3)c3ccccc3n2)cc1
- IC50 [39]: 1.56 µM (active)
- IC50 [40]: 2.98 µM (active)
